The results in this text go back to PubChem BioAssay AID330 (DTP/NCI, 2004).

SMILES strings stand for the structures. “And” between values parts separate entries of the source, which are not always exact repeats. Identical values can stand only once. Inconclusive results and toxic doses are left out.

In this assay the test system is P388 leukemia ip, CD2F1 mice, survival T/C. Put plainly: NCI In Vivo Anticancer Drug Screen. Data for tumor model P388 Leukemia (intraperitoneal) in CD2F1 (CDF1) mice. The settings on record: endpoint: median survival time, higher = longer survival. A digest of the protocol: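 Mice carrying the transplanted tumor received test compound or vehicle. Survival was recorded in each group, and the value is the treated-group measurement divided by that of the vehicle-treated control group.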

Setting [1] is: dose: 100.0 mg/kg/injection, schedule: Q01DX009 (ip), vehicle: saline with Tween-80.
The mark [2] stands for this setting: dose: 100.0 mg/kg/injection, schedule: Q01DX001 (ip), vehicle: saline with Tween-80.
The mark [3] stands for this setting: dose: 50.0 mg/kg/injection, schedule: Q01DX005 (ip), vehicle: saline with Tween-80.
Where [4] appears, read: dose: 100.0 mg/kg/injection, schedule: Q01DX005 (ip), vehicle: saline with Tween-80.
Setting [5] is: dose: 200.0 mg/kg/injection, schedule: Q01DX005 (ip), vehicle: saline with Tween-80.
Where [6] appears, read: dose: 25.0 mg/kg/injection, schedule: Q01DX009 (ip), vehicle: saline with Tween-80.
[7] abbreviates: dose: 100.0 mg/kg/injection, schedule: Q01DX009 (ip), vehicle: Klucel (hydroxypropylcellulose) (HPC).
Where [8] appears, read: dose: 200.0 mg/kg/injection, schedule: Q01DX009 (ip), vehicle: Klucel (hydroxypropylcellulose) (HPC).
The mark [9] stands for this setting: dose: 12.5 mg/kg/injection, schedule: Q01DX009 (ip), vehicle: Klucel (hydroxypropylcellulose) (HPC).
Where [10] appears, read: dose: 25.0 mg/kg/injection, schedule: Q01DX009 (ip), vehicle: Klucel (hydroxypropylcellulose) (HPC).
The mark [11] stands for this setting: dose: 50.0 mg/kg/injection, schedule: Q01DX009 (ip), vehicle: Klucel (hydroxypropylcellulose) (HPC).

As to `CNS(=O)(=O)c1ccc2c(c1)[nH]c(=S)n2C`, the T/C by setting is: under setting [1], 95 % of control; (dose: 200.0 mg/kg/injection, schedule: Q01DX009 (ip), vehicle: saline with Tween-80) 90 % of control; (dose: 400.0 mg/kg/injection, schedule: Q01DX009 (ip), vehicle: saline with Tween-80) 90 % of control.
Take `Nc1nc(N)c(CCc2ccccc2)c(N)n1`: the T/C was 97 % of control (dose: 12.5 mg/kg/injection, schedule: Q01DX005 (ip), vehicle: Klucel (hydroxypropylcellulose) (HPC)); 103 % of control (dose: 25.0 mg/kg/injection, schedule: Q01DX005 (ip), vehicle: Klucel (hydroxypropylcellulose) (HPC)); 92 % of control and 97 % of control (dose: 50.0 mg/kg/injection, schedule: Q01DX005 (ip), vehicle: Klucel (hydroxypropylcellulose) (HPC)).
With `Cc1ccc(S(=O)(=O)NC(=S)c2ccccc2C(=S)NS(=O)(=O)c2ccc(C)cc2)cc1`, the T/C is, setting by setting: under setting [2], 103 % of control; (dose: 200.0 mg/kg/injection, schedule: Q01DX001 (ip), vehicle: saline with Tween-80) 110 % of control; (dose: 400.0 mg/kg/injection, schedule: Q01DX001 (ip), vehicle: saline with Tween-80) 104 % of control.
Consider `O=C1CCCCCOCCOCCOCCOCCOCCCCC1`, for which the T/C reads like this: under setting [3], 104 % of control; under setting [4], 96 % of control; under setting [5], 101 % of control.
With `CNC(=S)NC(C)(C)C`, the T/C is 97 % of control (dose: 15.0 mg/kg/injection, schedule: Q01DX005 (ip), vehicle: Klucel (hydroxypropylcellulose) (HPC)); 97 % of control (dose: 30.0 mg/kg/injection, schedule: Q01DX005 (ip), vehicle: Klucel (hydroxypropylcellulose) (HPC)); 103 % of control and 98 % of control (dose: 60.0 mg/kg/injection, schedule: Q01DX005 (ip), vehicle: Klucel (hydroxypropylcellulose) (HPC)).
Turning to `CC(C)(O)C(=O)N/N=C/c1ccc(Cl)cc1`, the T/C is, setting by setting: (dose: 60.0 mg/kg/injection, schedule: Q01DX005 (ip), vehicle: saline with Tween-80) 101 % of control; (dose: 120.0 mg/kg/injection, schedule: Q01DX005 (ip), vehicle: saline with Tween-80) 99 % of control; (dose: 240.0 mg/kg/injection, schedule: Q01DX005 (ip), vehicle: saline with Tween-80) 100 % of control.
Regarding `COC(=O)c1cc(O)c2c(c1C(=O)OC)C[C@H]1[C@@H]3CC=C4C[C@@H](O)CC[C@]4(C)[C@H]3CC[C@]21C`, the T/C by setting is: under setting [3], 97 % of control; under setting [4], 87 % of control; under setting [5], 87 % of control.
Consider `CCOC(=O)SC(=S)OCC`, for which the T/C (dose: 6.25 mg/kg/injection, schedule: Q01DX009 (ip), vehicle: saline with Tween-80) is 108 % of control; the T/C (dose: 12.5 mg/kg/injection, schedule: Q01DX009 (ip), vehicle: saline with Tween-80) was 114 % of control; the T/C under setting [6] was 100 % of control; the T/C (dose: 50.0 mg/kg/injection, schedule: Q01DX009 (ip), vehicle: saline with Tween-80) was 87 % of control.
Consider `C=C1N(C)c2ccccc2C1(C)C`, for which the T/C was 113 % of control (dose: 4.0 mg/kg/injection, schedule: Q01DX009 (ip), vehicle: saline with Tween-80); 123 % of control (dose: 5.9 mg/kg/injection, schedule: Q01DX009 (ip), vehicle: saline with Tween-80); 110 % of control (dose: 9.0 mg/kg/injection, schedule: Q01DX009 (ip), vehicle: saline with Tween-80); 108 % of control and 118 % of control (dose: 13.0 mg/kg/injection, schedule: Q01DX009 (ip), vehicle: saline with Tween-80); 106 % of control (dose: 19.0 mg/kg/injection, schedule: Q01DX009 (ip), vehicle: saline with Tween-80); 109 % of control (dose: 29.0 mg/kg/injection, schedule: Q01DX009 (ip), vehicle: saline with Tween-80). Where the note is “dose: 45.0 mg/kg/injection, schedule: Q01DX009 (ip), vehicle: saline with Tween-80”, the T/C was 115 % of control.
Take `COc1cc([C@@H]2c3cc4c(cc3[C@H](O)[C@H]3COC(=O)[C@H]23)OCO4)cc(OC)c1OC`: the T/C is 121 % of control (dose: 0.5 mg/kg/injection, schedule: Q01DX005 (ip), vehicle: Klucel (hydroxypropylcellulose) (HPC)); 117 % of control (dose: 1.0 mg/kg/injection, schedule: Q01DX005 (ip), vehicle: Klucel (hydroxypropylcellulose) (HPC)); 118 % of control (dose: 1.0 mg/kg/injection, schedule: Q01DX005 (ip), vehicle: saline with Tween-80); 121 % of control (dose: 2.0 mg/kg/injection, schedule: Q01DX005 (ip), vehicle: saline with Tween-80); 152 % of control (dose: 8.0 mg/kg/injection, schedule: Q01DX005 (ip), vehicle: Klucel (hydroxypropylcellulose) (HPC)).
For `COc1ccc(CCN2C(=O)C(=O)N(c3cccc(Cl)c3)C2=O)cc1OC`, the T/C runs as follows: under setting [7], 86 % of control; under setting [8], 92 % of control.
For the molecule `CCCCn1c(=O)cc[nH]c1=O`, the T/C is, setting by setting: (dose: 100.0 mg/kg/injection, schedule: Q04DX003 (ip), vehicle: saline with Tween-80) 100 % of control; (dose: 200.0 mg/kg/injection, schedule: Q04DX003 (ip), vehicle: saline with Tween-80) 100 % of control; (dose: 400.0 mg/kg/injection, schedule: Q04DX003 (ip), vehicle: saline with Tween-80) 99 % of control.
`CC(C)(C)C1CCC(P(C)(C)=S)CC1` (stereo unspecified): the T/C is, setting by setting: under setting [9], 99 % of control; under setting [10], 114 % of control; under setting [11], 94 % of control; under setting [8], 97 % of control.
For `Cc1ccc(NC(=O)NC(=O)CCl)cc1`, the T/C is 105 % of control (dose: 6.25 mg/kg/injection, schedule: Q01DX009 (ip), vehicle: Klucel (hydroxypropylcellulose) (HPC)); 99 % of control under setting [9]; 101 % of control and 105 % of control under setting [10]; 92 % of control under setting [6]; 104 % of control and 108 % of control and 113 % of control under setting [11]; 123 % of control under setting [7]. In addition, under setting [1], the T/C is 106 % of control.
Turning to `Cc1cc(N(CCCl)CCCl)c(C)cc1NC(=O)c1ccccc1`, the T/C is 159 % of control (dose: 16.5 mg/kg/injection, schedule: Q04DX003 (ip), vehicle: saline with Tween-80); 177 % of control (dose: 25.0 mg/kg/injection, schedule: Q04DX003 (ip), vehicle: saline with Tween-80); 90 % of control (dose: 37.5 mg/kg/injection, schedule: Q04DX003 (ip), vehicle: saline with Tween-80); 90 % of control (dose: 50.0 mg/kg/injection, schedule: Q04DX003 (ip), vehicle: saline with Tween-80).
`CCCCCCC(C)OC(=O)OCCOCCOC(=O)OC(C)C(=O)OCCCC` (stereo unspecified): the T/C is, setting by setting: (dose: 60.0 mg/kg/injection, schedule: Q01DX005 (ip), vehicle: saline) 100 % of control; (dose: 120.0 mg/kg/injection, schedule: Q01DX005 (ip), vehicle: saline) 94 % of control; (dose: 240.0 mg/kg/injection, schedule: Q01DX005 (ip), vehicle: saline) 100 % of control.
Consider `CCN1CNC(=O)NC1`, for which the T/C is, setting by setting: (dose: 50.0 mg/kg/injection, schedule: Q01DX009 (ip), vehicle: saline) 112 % of control; (dose: 100.0 mg/kg/injection, schedule: Q01DX009 (ip), vehicle: saline) 111 % of control; (dose: 200.0 mg/kg/injection, schedule: Q01DX009 (ip), vehicle: saline) 100 % of control; (dose: 400.0 mg/kg/injection, schedule: Q01DX009 (ip), vehicle: saline) 118 % of control.
As to `c1ccc2cc(SCCCN3CCOCC3)ccc2c1`, the T/C is, setting by setting: (dose: 50.0 mg/kg/injection, schedule: Q01DX009 (ip), vehicle: saline sonified) 100 % of control; (dose: 100.0 mg/kg/injection, schedule: Q01DX009 (ip), vehicle: saline sonified) 104 % of control; (dose: 200.0 mg/kg/injection, schedule: Q01DX009 (ip), vehicle: saline sonified) 100 % of control.
As for `CN1COC(OC2OCN(C)CC2(C)C)C(C)(C)C1` (stereo unspecified), the T/C under setting [1] is 160 % of control.
Consider `c1ccc2c(c1)N=Nc1ccccc1OCCOCCOCCO2`, for which the T/C (dose: 25.0 mg/kg/injection, schedule: Q01DX001 (ip), vehicle: saline with Tween-80) is 103 % of control; the T/C (dose: 50.0 mg/kg/injection, schedule: Q01DX001 (ip), vehicle: saline with Tween-80) is 102 % of control; the T/C under setting [2] was 92 % of control.
